SMILES strings stand for the structures.

In the first assay the test system is phosphate uptake by rabbit intestinal Brush Border Membrane Vesicles (BBMV). Kind of assay: 33PO4 uptake in rabbit intestinal BBMV (HTS), phosphate transporter inhibition in vitro. Type of assay: biochemical. As to conditions: Table 12, 100 μM compound. Put shortly: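 BBMV from duodenal mucosa of male New Zealand White rabbits, diluted to about 0.5-2.0 mg/mL protein. Uptake buffers carried 33PO4 at 200,000 CPM/19 μL. Controls: Na uptake buffer (max), plus 100 μM KH2PO4 pH 7.4 (mid), K uptake buffer (min).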
For the compound `O=S(=O)(Cc1ccc(Cl)cc1Cl)c1cc(C(F)(F)F)cc(C(F)(F)F)c1` [Compound 280], the “% Inhib. at 100 μM” value was 57%.

`Cc1ccc(S(=O)(=O)Cc2c(Cl)cccc2Cl)cc1` [Compound 281]: the “% Inhib. at 100 μM” value came to 53%. On the same count and under the same terms, to `Cc1cccc(CS(=O)(=O)c2ccc(Cl)cc2)c1F` [Compound 282] belongs 53%; to `O=S(=O)(Cc1c(Cl)cccc1Cl)c1cc(C(F)(F)F)cc(C(F)(F)F)c1` [Compound 283], 51%; to `Cc1cc(S(=O)(=O)Cc2ccc(Cl)c(Cl)c2)c(Cl)cc1Cl` [Compound 284], 51%.

For `O=[N+]([O-])c1ccc(CS(=O)(=O)c2ccc(F)cc2F)c(Cl)c1` [Compound 285], the “% Inhib. at 100 μM” value turned out to be 44%. Still for that read-out and setting: to `O=S(=O)(Cc1c(F)cccc1Cl)c1ccc(Cl)cc1` [Compound 286] belongs 39%; to `O=S(=O)(Cc1ccccc1)c1ccccc1` [Compound 287], 34%; to `O=S(=O)(Cc1ccc(Br)cc1F)c1ccc(Cl)cc1` [Compound 288], 31%. Consider `O=S(=O)(Cc1ccc(C(F)(F)F)cc1)c1ccc(Cl)cc1` [Compound 291], for which the “% Inhib. at 100 μM” value amounted to 0%.

Staying with this assay, now noted: Table 13, phosphate uptake, read-out: IC50.
Take `O=S(=O)(O)c1cc(/N=N/c2ccc(O)cc2)ccc1/C=C/c1ccc(/N=N/c2ccc(O)cc2)cc1S(=O)(=O)O` [Compound 292]: the IC50 (as a rule, the midpoint of a concentration-inhibition curve) was below 50 µM. The same measure, in the same setting: under `O=S(=O)(O)c1cc(NS(=O)(=O)c2ccc(-c3ccccc3)cc2)ccc1/C=C/c1ccc(NS(=O)(=O)c2ccc(-c3ccccc3)cc2)cc1S(=O)(=O)O` [Compound 293] stands 51 to 100 µM; under `O=[N+]([O-])c1ccc(S(=O)(=O)Nc2ccc(/C=C/c3ccc(NS(=O)(=O)c4ccc([N+](=O)[O-])cc4)cc3S(=O)(=O)O)c(S(=O)(=O)O)c2)cc1` [Compound 294], 101 to 500 µM. The same measure, in the same setting: under `O=S(=O)(O)c1cc(NS(=O)(=O)c2cccc(C(F)(F)F)c2)ccc1/C=C/c1ccc(NS(=O)(=O)c2cccc(C(F)(F)F)c2)cc1S(=O)(=O)O` [Compound 296] stands 101 to 500 µM.

Turning to `O=[N+]([O-])c1cccc(S(=O)(=O)Nc2ccc(/C=C/c3ccc(NS(=O)(=O)c4cccc([N+](=O)[O-])c4)cc3S(=O)(=O)O)c(S(=O)(=O)O)c2)c1` [Compound 297], the concentration for half-maximal inhibition (IC50) lay in the range of 101 to 500 µM.

As for `O=S(=O)(O)c1cc(NS(=O)(=O)c2ccc(-c3ccccc3)cc2)ccc1/C=C/c1ccc(NS(=O)(=O)c2ccc(-c3ccccc3)cc2)cc1S(=O)(=O)O` [Compound 298], the IC50 was in the range of 501 to 1000 µM. On the same count and under the same terms, to `O=S(=O)(O)c1cc(NS(=O)(=O)c2cccc3ccccc23)ccc1/C=C/c1ccc(NS(=O)(=O)c2cccc3ccccc23)cc1S(=O)(=O)O` [Compound 299] belongs 501 to 1000 µM. The same measure, in the same setting: to `O=C(Nc1ccc(/C=C/c2ccc(NC(=O)c3ccccc3)cc2S(=O)(=O)O)c(S(=O)(=O)O)c1)c1ccccc1` [Compound 300] belongs 501 to 1000 µM; to `O=S(=O)(O)c1cc(NS(=O)(=O)c2cccc(Cl)c2)ccc1/C=C/c1ccc(NS(=O)(=O)c2cccc(Cl)c2)cc1S(=O)(=O)O` [Compound 301], 501 to 1000 µM.

As to `O=S(=O)(O)c1cc(Nc2nc(Nc3ccccc3)nc(N(CCO)CCO)n2)ccc1/C=C/c1ccc(Nc2nc(Nc3ccccc3)nc(N(CCO)CCO)n2)cc1S(=O)(=O)O` [Compound 302], the 50% inhibitory concentration (IC50) lay within 501 to 1000 µM. In the case of `O=[N+]([O-])c1ccc(S(=O)(=O)Nc2ccc(/C=C/c3ccc(NS(=O)(=O)c4ccc([N+](=O)[O-])cc4)cc3S(=O)(=O)O)c(S(=O)(=O)O)c2)cc1` [Compound 303], the IC50 lay within 501 to 1000 µM.

For `O=[N+]([O-])c1ccc(/C=C/c2ccc([N+](=O)[O-])cc2S(=O)(=O)O)c(S(=O)(=O)O)c1` [Compound 305], the half-maximal inhibitory concentration (IC50) lay within 1000 to 1500 µM.

As for `Oc1ccc(/C=C/c2ccc(O)cc2)cc1` [Compound 306], the IC50 is above 1500 µM.

As for `O=S(=O)(O)c1cc(N=C=S)ccc1/C=C/c1ccc(N=C=S)cc1S(=O)(=O)O` [Compound 307], the IC50 is above 1500 µM. Same read-out and setting: to `Nc1ccc(/C=C/c2ccc(N)cc2)cc1` [Compound 308] belongs above 1500 µM.

The values are drawn from US20070021509A1, “Phosphate transport inhibitors” (priority 2001, published 2007).
